What all share (format): functional
The test system of assay [1] is Enterococcus faecium. The assay can be described thus: Antibacterial activity against Enterococcus faecium MMC4 after 24 hrs by broth microdilution method. The following applies: MMC4, 24 h. A general note: Dilution methods test growth across graded concentrations, often in twofold steps.
Assay [2] has as its system Klebsiella aerogenes. The experiment in a line: Antibacterial activity against Enterobacter aerogenes after 24 hrs by broth microdilution method.
Assay [3] relates to Pseudomonas aeruginosa. The assay can be described thus: Antibacterial activity against Pseudomonas aeruginosa PAO1 after 24 hrs by broth microdilution method. The following applies: PAO1, 24 h.
In assay [4] the test system is Klebsiella pneumoniae. The assay can be described thus: Antibacterial activity against Klebsiella pneumoniae BAMS clinical isolate 07-18 after 24 hrs by broth microdilution method. The following applies: BAMS clinical isolate 07-18, 24 h.
Assay [5] has as its system Acinetobacter baumannii. The assay can be described thus: Antibacterial activity against Acinetobacter baumannii WRAIR clinical isolate 13 after 24 hrs by broth microdilution method. The following applies: WRAIR clinical isolate 13, 24 h.
Assay [6] has as its system Staphylococcus aureus. The assay can be described thus: Antibacterial activity against methicillin-sensitive Staphylococcus aureus UAMS-1 after 24 hrs by broth microdilution method. The conditions noted are these: UAMS-1, 24 h.

≈ marks a conversion by molar mass, not a printed value. Numbered stars: 1 amine (or outer) side, 2 acyl side, 3 side chain; on linkers, the order of the positions; unused ones are H or OH. Square brackets hold non-standard residues; d marks the D form. Peptide text beside a SMILES is read from it. * marks the point of attachment. ξ: configuration not given here. X3 = NCCCC[C@H](NC(=O)[C@H](CCCCN)NC(=O)[C@H](CCCCN)NC(=O)[C@H](CCCCN)NCCCC(=O)[C@@H]1Cc2ccccc2CN1*)C(N)=O; Pro(3ξ,4ξ-(CH2)4) = O=C(O)[C@H]1NCC2CCCCC21; Ethylenediamine = C(CN[*:2])N[*:1]; Tic = O=C(O)[C@@H]1Cc2ccccc2CN1; Dap = NC[C@H](N)C(=O)O

As a reminder, the MBC is the smallest concentration meeting the test's criterion for killing. Higher therefore signals weaker bactericidal potency. As usually defined, the MIC is the least concentration at which growth counts as inhibited. A low value points to a more susceptible organism.

With `CC(=O)NCC(=O)N[C@@H](Cc1ccccc1)C(=O)N1Cc2ccccc2C[C@H]1C(=O)N1CC2CCCCC2[C@H]1C(=O)NCC(=O)N[C@@H](CCCCN)C(=O)N1Cc2ccccc2C[C@H]1C(=O)N1CC2CCCCC2[C@H]1C(=O)NCC(=O)N[C@@H](Cc1ccccc1)C(=O)N1Cc2ccccc2C[C@H]1C(=O)N1CC2CCCCC2[C@H]1C(=O)NCC(=O)N[C@@H](CCCCN)C(=O)N1Cc2ccccc2C[C@H]1C(=O)CCCN[C@@H](CCCCN)C(=O)N[C@@H](CCCCN)C(=O)N[C@@H](CCCCN)C(=O)N[C@@H](CCCCN)C(N)=O` (stereo partly drawn) (Ac-GF[Tic][Pro(3ξ,4ξ-(CH2)4)]GK[Tic][Pro(3ξ,4ξ-(CH2)4)]GF[Tic][Pro(3ξ,4ξ-(CH2)4)]GK-X3), the MBC is greater than 100 mg/L in assay [1]; greater than 100 mg/L in assay [2]; greater than 100 mg/L in assay [3]; greater than 100 mg/L in assay [4]; 50 mg/L (≈ 20.1 µM) in assay [5]; greater than 100 mg/L in assay [6]. For the same compound, the MIC in assay [1] was 50 mg/L (≈ 20.1 µM); in assay [2], greater than 100 mg/L; in assay [3] it was greater than 100 mg/L; in assay [4], greater than 100 mg/L; in assay [5], 12.5 mg/L (≈ 5.03 µM); in assay [6] it was greater than 100 mg/L.

For `CC(=O)NCC(=O)N[C@@H](Cc1ccccc1)C(=O)N1Cc2ccccc2C[C@H]1C(=O)N1CC2CCCCC2[C@H]1C(=O)NCC(=O)N[C@@H](CCCCN)C(=O)N1Cc2ccccc2C[C@H]1C(=O)N1CC2CCCCC2[C@H]1C(=O)NCC(=O)N[C@@H](Cc1ccccc1)C(=O)N1Cc2ccccc2C[C@H]1C(=O)N1CC2CCCCC2[C@H]1C(=O)NCC(=O)N[C@@H](CCCCN)C(=O)N1Cc2ccccc2C[C@H]1C(=O)N[C@@H](CCCCN)C(=O)N[C@@H](CCCCN)C(=O)N[C@@H](CCCCN)C(=O)N[C@@H](CCCCN)C(=O)NCCN` (stereo partly drawn) (Ac-GF[Tic][Pro(3ξ,4ξ-(CH2)4)]GK[Tic][Pro(3ξ,4ξ-(CH2)4)]GF[Tic][Pro(3ξ,4ξ-(CH2)4)]GK[Tic]KKKK-Ethylenediamine), the MBC is 25 mg/L (≈ 10.1 µM) in assay [1]; 50 mg/L (≈ 20.1 µM) in assay [2]; 100 mg/L (≈ 40.3 µM) in assay [3]; 50 mg/L (≈ 20.1 µM) in assay [4]; 6.25 mg/L (≈ 2.52 µM) in assay [5]; greater than 100 mg/L in assay [6]. The MIC in assay [1] turned out to be 12.5 mg/L (≈ 5.03 µM); in assay [2], 50 mg/L (≈ 20.1 µM); in assay [3], 50 mg/L (≈ 20.1 µM); in assay [4], 25 mg/L (≈ 10.1 µM); in assay [5] it was 6.25 mg/L (≈ 2.52 µM); in assay [6], 50 mg/L (≈ 20.1 µM).

Turning to `CC(C)C[C@H](NC(=O)[C@@H](N)CCCCN)C(=O)N1Cc2ccccc2C[C@H]1C(=O)N1CC2CCCCC2[C@H]1C(=O)N[C@@H](CCCCN)C(=O)N1Cc2ccccc2C[C@H]1C(=O)N1CC2CCCCC2[C@H]1C(=O)NC(=O)[C@H](Cc1ccccc1)NCC(=O)N1Cc2ccccc2C[C@H]1C(=O)N1CC2CCCCC2[C@H]1C(=O)N[C@@H](CCCCN)C(=O)N1Cc2ccccc2C[C@H]1C(=O)N1CC2CCCCC2[C@H]1C(=O)NC(=O)[C@H](Cc1ccccc1)NCC(=O)N1Cc2ccccc2C[C@H]1C(=O)N1CC2CCCCC2[C@H]1C(=O)N[C@@H](CCCCN)C(=O)N1Cc2ccccc2C[C@H]1C(=O)N1CC2CCCCC2[C@H]1C(=O)N[C@@H](CCCCN)C(=O)N[C@@H](CCCCN)C(=O)N[C@@H](CCCCN)C(=O)N[C@@H](CCCCN)C(N)=O` (stereo partly drawn), the MBC in assay [1] is 25 mg/L (≈ 7.3 µM); in assay [2], 100 mg/L (≈ 29.2 µM); in assay [3], 50 mg/L (≈ 14.6 µM); in assay [4] it was 100 mg/L (≈ 29.2 µM); in assay [5], 50 mg/L (≈ 14.6 µM); in assay [6], 25 mg/L (≈ 7.3 µM). In addition, the MIC came out at 6.25 mg/L (≈ 1.82 µM) in assay [1]; 100 mg/L (≈ 29.2 µM) in assay [2]; 50 mg/L (≈ 14.6 µM) in assay [3]; 50 mg/L (≈ 14.6 µM) in assay [4]; 12.5 mg/L (≈ 3.65 µM) in assay [5]; 25 mg/L (≈ 7.3 µM) in assay [6].

With `CC(C)C[C@H](NC(=O)[C@@H](N)CN)C(=O)N1Cc2ccccc2C[C@H]1C(=O)N1CC2CCCCC2[C@H]1C(=O)N[C@@H](CN)C(=O)N1Cc2ccccc2C[C@H]1C(=O)N1CC2CCCCC2[C@H]1C(=O)N[C@@H](Cc1ccccc1)C(=O)N1Cc2ccccc2C[C@H]1C(=O)N1CC2CCCCC2[C@H]1C(=O)N[C@@H](CN)C(=O)N1Cc2ccccc2C[C@H]1C(=O)N1CC2CCCCC2[C@H]1C(=O)N[C@@H](Cc1ccccc1)C(=O)N1Cc2ccccc2C[C@H]1C(=O)N1CC2CCCCC2[C@H]1C(=O)N[C@@H](CN)C(=O)N1Cc2ccccc2C[C@H]1C(=O)N1CC2CCCCC2[C@H]1C(=O)N[C@@H](CN)C(=O)N[C@@H](CN)C(=O)N[C@@H](CN)C(=O)N[C@@H](CN)C(N)=O` (stereo partly drawn) (H-[Dap]L[Tic][Pro(3ξ,4ξ-(CH2)4)][Dap][Tic][Pro(3ξ,4ξ-(CH2)4)]F[Tic][Pro(3ξ,4ξ-(CH2)4)][Dap][Tic][Pro(3ξ,4ξ-(CH2)4)]F[Tic][Pro(3ξ,4ξ-(CH2)4)][Dap][Tic][Pro(3ξ,4ξ-(CH2)4)][Dap][Dap][Dap][Dap]-NH2), the MBC in assay [1] was found to be 25 mg/L (≈ 8.4 µM); in assay [2], 100 mg/L (≈ 33.6 µM); in assay [3], 100 mg/L (≈ 33.6 µM); in assay [4], 100 mg/L (≈ 33.6 µM); in assay [5] it was 50 mg/L (≈ 16.8 µM); in assay [6], 100 mg/L (≈ 33.6 µM). Also, the minimal inhibitory concentration (MIC) in assay [1] was determined as 12.5 mg/L (≈ 4.2 µM); in assay [2] it was 100 mg/L (≈ 33.6 µM); in assay [3], 50 mg/L (≈ 16.8 µM); in assay [4], 100 mg/L (≈ 33.6 µM); in assay [5], 12.5 mg/L (≈ 4.2 µM); in assay [6], 50 mg/L (≈ 16.8 µM).

The values are drawn from ChEMBL document CHEMBL2375306, “Antimicrobial peptides containing unnatural amino acid exhibit potent bactericidal activity against ESKAPE pathogens” (Bioorg Med Chem, 2013).
